Values quoted from earlier work in patent US8986529B2, “Isotachophoresis having interacting anionic and cationic shock waves” (The Board of Trustees of the Leland Stanford Junior …, priority 2010, dated 2015).
Where two headings read alike, the source gives them in different places.

Tests used:
[1] = for pKa: text b64: pKa,TE− of Tricine, pKa,LE+ of Imidazole, pKa,TE+ of Arginine
[2] = Table 1, fully-ionized (absolute) mobility of the +1 cation, cationic LE+/TE+ candidates for focusing to separation mode
[3] = Table 2, absolute mobility of the cation, cationic LE+/TE+ candidates for bidirectional cascade ITP
[4] = Table 2, acid dissociation constant of the cation, bidirectional cascade ITP buffers
[5] = Table 1, cationic LE+/TE+ candidates for focusing to separation mode

pKa,+1 [1, 5] | SMILES | μ+1 [2] | μ+1 [3] | pKa,+1 [1, 4] | pKa [1]
 | NC(CO)(CO)CO [Tris] | 29.5 ×10^−9 m^2V^−1s^−1 | 29.5 ×10^−9 m^2V^−1s^−1 |  | 
 | c1ccncc1 [Pyridine] |  | 30 ×10^−9 m^2V^−1s^−1 |  | 
 | Cc1ccccn1 [2-methyl pyridine] | 40.1 ×10^−9 m^2V^−1s^−1 | 40.1 ×10^−9 m^2V^−1s^−1 | 6.2 | 
7.15 | c1c[nH]cn1 [Imidazole] | 52 ×10^−9 m^2V^−1s^−1 | 52 ×10^−9 m^2V^−1s^−1 | 7.15 | 7.15
 | CC(N)(CO)CO [Amediol] | 33.5 ×10^−9 m^2V^−1s^−1 |  |  | 
5.5 | Cc1cccnc1 [3-methyl pyridine] | 40.1 ×10^−9 m^2V^−1s^−1 |  |  | 
 | Cc1ccncc1 [4-methyl pyridine] |  | 40.1 ×10^−9 m^2V^−1s^−1 |  | 
 | OCCN(CCO)C(CO)(CO)CO [Bistris] |  | 26 ×10^−9 m^2V^−1s^−1 |  | 

SMILES | pKa,+1 [1, 5] | μ+1 [2] | μ+1 [3] | pKa,+1 [1, 4] | pKa [1]
N=C(N)NCCC[C@H](N)C(=O)O [Arginine] | 8.92 | 26.9 ×10^−9 m^2V^−1s^−1 |  |  | 8.92
